{"source": "patent US9580431B2", "about": "“Inhibitors of human immunodeficiency virus replication” (priority 2013, dated 2017)", "tested_on": "recombinant NL-Rluc virus", "test": "microbe, parasite or virus in culture", "type": "cell-based, HIV", "key": {"[1]": {"details": "Human immunodeficiency virus 1, MT2, 120 h, NL-RLuc virus infecting MT-2 cells, 5 days of incubation, luciferase readout, at least 2 experiments, serum condition not given, read-out: EC50"}, "[2]": {"details": "NL-RLuc virus infecting MT-2 cells, 5 days of incubation, luciferase readout, at least 2 experiments, serum condition not given, read-out: EC50"}}, "note": "Read-outs that look alike come from different tables or passages of the source.", "data": [{"smiles": "COC1(C)CCN(c2c([C@H](OC(C)(C)C)C(=O)O)c(C)nc3cc(-c4ncc(Cc5ccc(F)cc5)s4)nn23)CC1", "note": "[Example 22, (S)-2-(tert-Butoxy)-2-(2-(5-(4-fluorobenzyl)thiazol-2-yl)-7-(4-methoxy-4-methylpiperidin-1-yl)-5-methylpyrazolo[1,5-a]pyrimidin-6-yl)acetic acid]", "values": [{"measurement": "EC50", "setting": "[1]", "result": 12, "unit": "nM"}]}, {"smiles": "Cc1nc2cc(-c3ncc(Cc4ccc(F)cc4)s3)nn2c(C2CCC(C)(C)CC2)c1[C@H](OC(C)(C)C)C(=O)O", "note": "[Example 11, (S)-2-(tert-Butoxy)-2-(7-(4,4-dimethylcyclohexyl)-2-(5-(4-fluorobenzyl)thiazol-2-yl)-5-methylpyrazolo[1,5-a]pyrimidin-6-yl)acetic acid]", "values": [{"measurement": "EC50", "setting": "[1]", "result": 82, "unit": "nM"}]}, {"smiles": "Cc1nc2cc(N3C(=O)OCC3Cc3ccccc3)nn2c(N2CCC(C)(C)CC2)c1[C@H](OC(C)(C)C)C(=O)O", "note": "(stereo partly drawn) [Example 28, (2S)-2-(2-(4-Benzyl-2-oxooxazolidin-3-yl)-7-(4,4-dimethylpiperidin-1-yl)-5-methylpyrazolo[1,5-a]pyrimidin-6-yl)-2-(tert-butoxy)acetic acid]", "values": [{"measurement": "EC50", "setting": "[2]", "result": 152, "unit": "nM"}]}, {"smiles": "Cc1nc2cc(-c3nc4cc(Cl)ccc4n3C)nn2c(-c2cc(F)c3c(c2C)CCCO3)c1[C@H](OC(C)(C)C)C(=O)O", "note": "[Example 2, (2S)-2-(tert-Butoxy)-2-(2-(5-chloro-1-methyl-1H-benzo[d]imidazol-2-yl)-7-(8-fluoro-5-methylchroman-6-yl)-5-methylpyrazolo[1,5-a]pyrimidin-6-yl)acetic acid]", "values": [{"measurement": "EC50", "setting": "[1]", "result": 50, "unit": "nM"}]}, {"smiles": "Cc1nc2cc(-n3cnc(Cc4ccccc4)c3)nn2c(N2CCC(C)(C)CC2)c1[C@H](OC(C)(C)C)C(=O)O", "note": "[Example 34, (S)-2-(2-(4-Benzyl-1H-imidazol-1-yl)-7-(4,4-dimethylpiperidin-1-yl)-5-methylpyrazolo[1,5-a]pyrimidin-6-yl)-2-(tert-butoxy)acetic acid]", "values": [{"measurement": "EC50", "setting": "[1]", "result": 26, "unit": "nM"}]}, {"smiles": "Cc1nc2cc(N3CCN(Cc4ccccc4)C3=O)nn2c(N2CCC(C)(C)CC2)c1[C@H](OC(C)(C)C)C(=O)O", "note": "[Example 26, (S)-2-(2-(3-Benzyl-2-oxoimidazolidin-1-yl)-7-(4,4-dimethylpiperidin-1-yl)-5-methylpyrazolo[1,5-a]pyrimidin-6-yl)-2-(tert-butoxy)acetic acid]", "values": [{"measurement": "EC50", "setting": "[1]", "result": 145, "unit": "nM"}]}, {"smiles": "CCC1(C)CCN(c2c([C@H](OC(C)(C)C)C(=O)O)c(C)nc3cc(-c4ncc(Cc5ccc(F)cc5)s4)nn23)CC1", "note": "[Example 17, (S)-2-(tert-Butoxy)-2-(7-(4-ethyl-4-methylpiperidin-1-yl)-2-(5-(4-fluorobenzyl)thiazol-2-yl)-5-methylpyrazolo[1,5-a]pyrimidin-6-yl)acetic acid]", "values": [{"measurement": "EC50", "setting": "[1]", "result": 13, "unit": "nM"}]}, {"smiles": "Cc1nc2cc(-n3cc(Cc4ccccc4)cn3)nn2c(N2CCC(C)(C)CC2)c1[C@H](OC(C)(C)C)C(=O)O", "note": "[Example 33, (S)-2-(2-(4-Benzyl-1H-pyrazol-1-yl)-7-(4,4-dimethylpiperidin-1-yl)-5-methylpyrazolo[1,5-a]pyrimidin-6-yl)-2-(tert-butoxy)acetic acid]", "values": [{"measurement": "EC50", "setting": "Human immunodeficiency virus 1, MT2, 120 h", "result": 11, "unit": "nM"}]}, {"smiles": "Cc1nc2cc(-c3ncc(-c4cccc(F)c4)s3)nn2c(-c2cc(F)c3c(c2C)CCCO3)c1[C@H](OC(C)(C)C)C(=O)O", "note": "[Example 9, (2S)-2-(tert-Butoxy)-2-(7-(8-fluoro-5-methylchroman-6-yl)-2-(5-(3-fluorophenyl)thiazol-2-yl)-5-methylpyrazolo[1,5-a]pyrimidin-6-yl)acetic acid]", "values": [{"measurement": "EC50", "setting": "[1]", "result": 28, "unit": "nM"}]}, {"smiles": "Cc1nc2cc(-c3nc4cc(-c5ccccc5)ccc4[nH]3)nn2c(-c2cc(F)c3c(c2C)CCCO3)c1[C@H](OC(C)(C)C)C(=O)O", "note": "[Example 4, (2S)-2-(tert-Butoxy)-2-(7-(8-fluoro-5-methylchroman-6-yl)-5-methyl-2-(5-phenyl-1H-benzo[d]imidazol-2-yl)pyrazolo[1,5-a]pyrimidin-6-yl)acetic acid]", "values": [{"measurement": "EC50", "setting": "[1]", "result": 133, "unit": "nM"}]}, {"smiles": "Cc1nc2cc(-c3ncc(Cc4ccc(F)cc4)s3)nn2c(N2CCC(C)(O)CC2)c1[C@H](OC(C)(C)C)C(=O)O", "note": "[Example 18, (S)-2-(tert-Butoxy)-2-(2-(5-(4-fluorobenzyl)thiazol-2-yl)-7-(4-hydroxy-4-methylpiperidin-1-yl)-5-methylpyrazolo[1,5-a]pyrimidin-6-yl)acetic acid]", "values": [{"measurement": "EC50", "setting": "[1]", "result": 143, "unit": "nM"}]}, {"smiles": "Cc1nc2cc(-c3ccc(Cc4ccc(F)cc4)s3)nn2c(N2CCC(C)(C)CC2)c1[C@H](OC(C)(C)C)C(=O)O", "note": "[Example 25, (S)-2-(tert-Butoxy)-2-(7-(4,4-dimethylpiperidin-1-yl)-2-(5-(4-fluorobenzyl)thiophen-2-yl)-5-methylpyrazolo[1,5-a]pyrimidin-6-yl)acetic acid]", "values": [{"measurement": "EC50", "setting": "[1]", "result": 23, "unit": "nM"}]}, {"smiles": "Cc1nc2cc(-n3cc(Cc4ccccc4)c(Cl)n3)nn2c(N2CCC(C)(C)CC2)c1[C@H](OC(C)(C)C)C(=O)O", "note": "[Example 38, (S)-2-(2-(4-Benzyl-3-chloro-1H-pyrazol-1-yl)-7-(4,4-dimethylpiperidin-1-yl)-5-methylpyrazolo[1,5-a]pyrimidin-6-yl)-2-(tert-butoxy)acetic acid]", "values": [{"measurement": "EC50", "setting": "[1]", "result": 23, "unit": "nM"}]}, {"smiles": "Cc1nc2cc(-c3ncc(Cc4ccc(F)cc4)s3)nn2c(N2CC=C(c3ccccc3)CC2)c1[C@H](OC(C)(C)C)C(=O)O", "note": "[Example 20, (S)-2-(tert-Butoxy)-2-(2-(5-(4-fluorobenzyl)thiazol-2-yl)-5-methyl-7-(4-phenyl-5,6-dihydropyridin-1(2H)-yl)pyrazolo[1,5-a]pyrimidin-6-yl)acetic acid]", "values": [{"measurement": "EC50", "setting": "[1]", "result": 877, "unit": "nM"}]}, {"smiles": "Cc1nc2cc(N3CCC(Oc4ccccc4)C3=O)nn2c(N2CCC(C)(C)CC2)c1[C@H](OC(C)(C)C)C(=O)O", "note": "(stereo partly drawn) [Example 32, (2S)-2-(tert-Butoxy)-2-(7-(4,4-dimethylpiperidin-1-yl)-5-methyl-2-(2-oxo-3-phenoxypyrrolidin-1-yl)pyrazolo[1,5-a]pyrimidin-6-yl)acetic acid]", "values": [{"measurement": "EC50", "setting": "[2]", "result": 339, "unit": "nM"}]}, {"smiles": "Cc1cc(Cc2cnc(-c3cc4nc(C)c([C@H](OC(C)(C)C)C(=O)O)c(N5CCC(C)(C)CC5)n4n3)s2)ccc1F", "note": "[Example 15, (S)-2-(tert-Butoxy)-2-(7-(4,4-dimethylpiperidin-1-yl)-2-(5-(4-fluoro-3-methylbenzyl)thiazol-2-yl)-5-methylpyrazolo[1,5-a]pyrimidin-6-yl)acetic acid]", "values": [{"measurement": "EC50", "setting": "[1]", "result": 19, "unit": "nM"}]}, {"smiles": "C=CCOc1ccccc1Cc1cnn(-c2cc3nc(C)c([C@H](OC(C)(C)C)C(=O)O)c(N4CCC(C)(OCC=C)CC4)n3n2)c1", "note": "[Example 37, (S)-2-(7-(4-(Allyloxy)-4-methylpiperidin-1-yl)-2-(4-(2-(allyloxy)benzyl)-1H -pyrazol-1-yl)-5-methylpyrazolo[1,5-a]pyrimidin-6-yl)-2-(tert-butoxy)acetic acid]", "values": [{"measurement": "EC50", "setting": "[1]", "result": 11, "unit": "nM"}]}, {"smiles": "C=CC1(C)CCN(c2c([C@H](OC(C)(C)C)C(=O)O)c(C)nc3cc(-c4ncc(Cc5ccc(F)cc5)s4)nn23)CC1", "note": "[Example 23, (S)-2-(tert-Butoxy)-2-(2-(5-(4-fluorobenzyl)thiazol-2-yl)-5-methyl-7-(4-methyl-4-vinylpiperidin-1-yl)pyrazolo[1,5-a]pyrimidin-6-yl)acetic acid]", "values": [{"measurement": "EC50", "setting": "[1]", "result": 12, "unit": "nM"}]}, {"smiles": "Cc1nc2cc(N3CC(Cc4ccccc4)OC3=O)nn2c(N2CCC(C)(C)CC2)c1[C@H](OC(C)(C)C)C(=O)O", "note": "(stereo partly drawn) [Example 29, (2S)-2-(2-(5-Benzyl-2-oxooxazolidin-3-yl)-7-(4,4-dimethylpiperidin-1-yl)-5-methylpyrazolo[1,5-a]pyrimidin-6-yl)-2-(tert-butoxy)acetic acid]", "values": [{"measurement": "EC50", "setting": "[2]", "result": 6, "unit": "nM"}]}, {"smiles": "Cc1nc2cc(-c3ncc(Cc4ccc(F)cc4)o3)nn2c(C2=CCC(C)(C)CC2)c1[C@H](OC(C)(C)C)C(=O)O", "note": "[Example 12, (S)-2-(tert-Butoxy)-2-(7-(4,4-dimethylcyclohex-1-en-1-yl)-2-(5-(4-fluorobenzyl)oxazol-2-yl)-5-methylpyrazolo[1,5-a]pyrimidin-6-yl)acetic acid]", "values": [{"measurement": "EC50", "setting": "[1]", "result": 13, "unit": "nM"}]}, {"smiles": "Cc1nc2cc(-n3ccc(Cc4ccccc4)n3)nn2c(N2CCC(C)(C)CC2)c1[C@H](OC(C)(C)C)C(=O)O", "note": "[Example 36, (S)-2-(2-(3-Benzyl-1H-pyrazol-1-yl)-7-(4,4-dimethylpiperidin-1-yl)-5-methylpyrazolo[1,5-a]pyrimidin-6-yl)-2-(tert-butoxy)acetic acid]", "values": [{"measurement": "EC50", "setting": "[1]", "result": 84, "unit": "nM"}]}, {"smiles": "C=CCOC1(C)CCN(c2c([C@H](OC(C)(C)C)C(=O)O)c(C)nc3cc(-c4cn(Cc5ccccc5)cn4)nn23)CC1", "note": "[Example 41, (S)-2-(7-(4-(Allyloxy)-4-methylpiperidin-1-yl)-2-(1-benzyl-1H-imidazol-4-yl)-5-methylpyrazolo[1,5-a]pyrimidin-6-yl)-2-(tert-butoxy)acetic acid]", "values": [{"measurement": "EC50", "setting": "[1]", "result": 15, "unit": "nM"}]}, {"smiles": "Cc1nc2cc(-c3ncc(Cc4ccc(F)cc4)s3)nn2c(N2CCC(C)(C)CC2)c1[C@H](OC(C)(C)C)C(=O)O", "note": "[Example 13, (S)-2-(tert-Butoxy)-2-(7-(4,4-dimethylpiperidin-1-yl)-2-(5-(4-fluorobenzyl)thiazol-2-yl)-5-methylpyrazolo[1,5-a]pyrimidin-6-yl)acetic acid]", "values": [{"measurement": "EC50", "setting": "[1]", "result": 14, "unit": "nM"}]}, {"smiles": "Cc1nc2cc(-c3ncc(Cc4ccc(F)cc4)s3)nn2c(C2=CCC(C)(C)CC2)c1[C@H](OC(C)(C)C)C(=O)O", "note": "[Example 10, (S)-2-(tert-Butoxy)-2-(7-(4,4-dimethylcyclohex-1-en-1-yl)-2-(5-(4-fluorobenzyl)thiazol-2-yl)-5-methylpyrazolo[1,5-a]pyrimidin-6-yl)acetic acid]", "values": [{"measurement": "EC50", "setting": "[1]", "result": 19, "unit": "nM"}]}, {"smiles": "Cc1nc2cc(N3C(=O)OCC3Cc3ccccc3)nn2c(N2CCC(C)(C)CC2)c1[C@H](OC(C)(C)C)C(=O)O", "note": "(stereo partly drawn) [Example 27, (2S)-2-(2-(4-Benzyl-2-oxooxazolidin-3-yl)-7-(4,4-dimethylpiperidin-1-yl)-5-methylpyrazolo[1,5-a]pyrimidin-6-yl)-2-(tert-butoxy)acetic acid]", "values": [{"measurement": "EC50", "setting": "[2]", "result": 478, "unit": "nM"}]}, {"smiles": "Cc1nc2cc(-c3ncc(C(C)c4ccc(F)cc4)s3)nn2c(N2CCC(C)(C)CC2)c1[C@H](OC(C)(C)C)C(=O)O", "note": "(stereo partly drawn) [Example 14, (2S)-2-(tert-Butoxy)-2-(7-(4,4-dimethylpiperidin-1-yl)-2-(5-(1-(4-fluorophenyl)ethyl)thiazol-2-yl)-5-methylpyrazolo[1,5-a]pyrimidin-6-yl)acetic acid]", "values": [{"measurement": "EC50", "setting": "[1]", "result": 27, "unit": "nM"}]}]}
